Measurements from paper PMC9409646 (Marine Drugs, 2022).

System: hα3β4 nAChRs
Format: cell-based, human

Czon1107-F9A: Ala-scan analogue of Czon1107 (GFRSPCPPAC)
activity at hα3β4 nAChRs compared with wild-type Czon1107 (in words): slight potency decrease

Czon1107-G1R: Arg-scan analogue of Czon1107 (RFRSPCPPFC)
inhibition of ACh-evoked current amplitude: ~ 50%

Czon1107-P5R: Arg-scan analogue of Czon1107 (GFRSRCPPFC)
activity at hα3β4 nAChRs compared with wild-type Czon1107 (in words): No significant change in activity

Czon1107-P7R: Arg-scan analogue of Czon1107 (GFRSPCRPFC)
inhibition of ACh-evoked current amplitude: ~ 50%

Czon1107-P8R: Arg-scan analogue of Czon1107 (GFRSPCPRFC)
activity at hα3β4 nAChRs compared with wild-type Czon1107 (in words): No significant change in activity
